Measurements from article PMC13298843, “Substituent size versus metal binding of inhibitors with variants of influenza endonuclease^” (Journal of inorganic biochemistry, 2025).
Where two headings read alike, the source gives them in different places.

How the values were obtained:
[1] = target: WT enzyme (PAN endonuclease); design: method as in PMID 31536340; conditions: FRET-based assay, cited from earlier work
[2] = assay type: physicochemical; conditions: at 1000 μM in DSF buffer with 4 % DMSO
influenza = conditions: oral monotherapy taken at time of diagnosis; cited from earlier work
[3] = at edge of limit of detection, read-out: IC50 values
[4] = read-out: pIC50 values (converted)

In the case of `O=C(O)c1[nH]c(-c2ccccc2Oc2ccccc2)cc(=O)c1O` [Compound 4], the IC50 [1, 3] is listed as roughly 3 nM and the solubility [2] is listed as “poorly soluble”.

For `Cc1ccccc1-c1cc(=O)c(O)c(C(=O)O)[nH]1` [Compound 1], the IC50 [1, 4] is listed as less than 2 nM.

In the case of `CSc1ccccc1-c1cc(=O)c(O)c(C(=O)O)[nH]1` [Compound 3], the IC50 [1, 3] is listed as roughly 3 nM.

In the case of `COC(=O)OCOc1c2n(ccc1=O)N([C@@H]1c3ccccc3SCc3c1ccc(F)c3F)[C@@H]1COCCN1C2=O` [BXM, Baloxavir marboxil], the “time to reduce fever (average)” value (influenza) is given as 24 h.

For `CCc1ccccc1-c1cc(=O)c(O)c(C(=O)O)[nH]1` [Compound 2], the IC50 [1, 4] is given as less than 2 nM.
